Data from PubChem BioAssay AID1845204 (Molecular Pharmacology Branch, DTP, NCI, 2023).

System: HSSY-II tumor spheroid viability
Experiment: Anticancer human tumor HSSY-II cell line growth inhibition;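 further: spheroids exposed to compounds for seven days before reading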;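 on viability, T/C: percent of DMSO vehicle control viability so 100% = untreated level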
Details: spheroids with HUVEC and MSC; for IC50: curve of first compound; for viability, T/C: stronger effect = lower value
Summary of the method: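 Complex spheroids of malignant cells with endothelial cells and mesenchymal stem cells; agents alone or combined, from near clinical Cmax (or 10 microM if unknown) down in half-log steps, 0.25% DMSO final.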

O=C(c1cc(Cc2n[nH]c(=O)c3ccccc23)ccc1F)N1CCN(C(=O)C2CC2)CC1 + CC[C@@]1(O)C(=O)OCc2c1cc1n(c2=O)Cc2cc3c(CN(C)C)c(O)ccc3nc2-1
IC50 (second compound 0.003 µM): 505 nM | IC50 (second compound 0.00949 µM): < 94.9 nM | IC50 (second compound 0.03 µM): < 94.9 nM | IC50 (second compound 0.0949 µM): < 94.9 nM | IC50 (second compound 0.3 µM): < 94.9 nM | viability, T/C (second compound 0.003 µM, first compound 0.0949 µM): 63.4% | viability, T/C (second compound 0.003 µM, first compound 0.3 µM): 56.4% | viability, T/C (second compound 0.003 µM, first compound 0.949 µM): 41.4% | viability, T/C (second compound 0.003 µM, first compound 3 µM): 18.8% | viability, T/C (second compound 0.003 µM, first compound 9.49 µM): 7.55% | viability, T/C (second compound 0.003 µM, first compound 30 µM): 7.59% | viability, T/C (second compound 0.00949 µM, first compound 0.0949 µM): 14.3% | viability, T/C (second compound 0.00949 µM, first compound 0.3 µM): 11.9% | viability, T/C (second compound 0.00949 µM, first compound 0.949 µM): 10.8% | viability, T/C (second compound 0.00949 µM, first compound 3 µM): 7.16% | viability, T/C (second compound 0.00949 µM, first compound 9.49 µM): 6.35% | viability, T/C (second compound 0.00949 µM, first compound 30 µM): 7% | viability, T/C (second compound 0.03 µM, first compound 0.0949 µM): 5.6% | viability, T/C (second compound 0.03 µM, first compound 0.3 µM): 5.95% | viability, T/C (second compound 0.03 µM, first compound 0.949 µM): 5.27% | viability, T/C (second compound 0.03 µM, first compound 3 µM): 6.36% | viability, T/C (second compound 0.03 µM, first compound 9.49 µM): 5.82% | viability, T/C (second compound 0.03 µM, first compound 30 µM): 6.47% | viability, T/C (second compound 0.0949 µM, first compound 0.0949 µM): 5.02% | viability, T/C (second compound 0.0949 µM, first compound 0.3 µM): 4.58% | viability, T/C (second compound 0.0949 µM, first compound 0.949 µM): 4.8% | viability, T/C (second compound 0.0949 µM, first compound 3 µM): 4.07% | viability, T/C (second compound 0.0949 µM, first compound 9.49 µM): 4.67% | viability, T/C (second compound 0.0949 µM, first compound 30 µM): 5.85% | viability, T/C (second compound 0.3 µM, first compound 0.0949 µM): 3.79% | viability, T/C (second compound 0.3 µM, first compound 0.3 µM): 4.17% | viability, T/C (second compound 0.3 µM, first compound 0.949 µM): 3.66% | viability, T/C (second compound 0.3 µM, first compound 3 µM): 4.24% | viability, T/C (second compound 0.3 µM, first compound 9.49 µM): 3.48% | viability, T/C (second compound 0.3 µM, first compound 30 µM): 4.55%

[2H]c1nc(C)nc([2H])c1-c1cc(NC[C@@H](C)c2cccc3c(C(=O)NC)ccnc23)ncn1 + Cn1nnc2c(C(N)=O)ncn2c1=O
IC50 (second compound 1 µM): > 10000 nM | IC50 (second compound 3.16 µM): > 10000 nM | IC50 (second compound 10 µM): > 10000 nM | IC50 (second compound 31.6 µM): > 10000 nM | IC50 (second compound 100 µM): > 10000 nM | viability, T/C (second compound 1 µM, first compound 0.0316 µM): 103% | viability, T/C (second compound 1 µM, first compound 0.1 µM): 101% | viability, T/C (second compound 1 µM, first compound 0.316 µM): 100% | viability, T/C (second compound 1 µM, first compound 1 µM): 96.8% | viability, T/C (second compound 1 µM, first compound 3.16 µM): 93.8% | viability, T/C (second compound 1 µM, first compound 10 µM): 91.7% | viability, T/C (second compound 3.16 µM, first compound 0.0316 µM): 104% | viability, T/C (second compound 3.16 µM, first compound 0.1 µM): 100% | viability, T/C (second compound 3.16 µM, first compound 0.316 µM): 98.5% | viability, T/C (second compound 3.16 µM, first compound 1 µM): 107% | viability, T/C (second compound 3.16 µM, first compound 3.16 µM): 94.1% | viability, T/C (second compound 3.16 µM, first compound 10 µM): 90.8% | viability, T/C (second compound 10 µM, first compound 0.0316 µM): 98.2% | viability, T/C (second compound 10 µM, first compound 0.1 µM): 103% | viability, T/C (second compound 10 µM, first compound 0.316 µM): 101% | viability, T/C (second compound 10 µM, first compound 1 µM): 97.5% | viability, T/C (second compound 10 µM, first compound 3.16 µM): 95.3% | viability, T/C (second compound 10 µM, first compound 10 µM): 86.2% | viability, T/C (second compound 31.6 µM, first compound 0.0316 µM): 108% | viability, T/C (second compound 31.6 µM, first compound 0.1 µM): 102% | viability, T/C (second compound 31.6 µM, first compound 0.316 µM): 106% | viability, T/C (second compound 31.6 µM, first compound 1 µM): 102% | viability, T/C (second compound 31.6 µM, first compound 3.16 µM): 97.2% | viability, T/C (second compound 31.6 µM, first compound 10 µM): 94.4% | viability, T/C (second compound 100 µM, first compound 0.0316 µM): 91.1% | viability, T/C (second compound 100 µM, first compound 0.1 µM): 94.4% | viability, T/C (second compound 100 µM, first compound 0.316 µM): 95.2% | viability, T/C (second compound 100 µM, first compound 1 µM): 91.4% | viability, T/C (second compound 100 µM, first compound 3.16 µM): 90.9% | viability, T/C (second compound 100 µM, first compound 10 µM): 85%
